Measurements as given in paper PMC2693909 (Journal of molecular biology, 2009).

Molecular target: Hsc70 NBD (Hsc-70-NBD) (Bos taurus, UniProt P19120)
Assay: […]-1H NMR chemical shift differences, ATP versus ADP.Pi state
Format: binding
Details: neutral aqueous solution

Hsc70 NBD (Hsc-70-NBD), sequence (P19120 1-383 limits assumed): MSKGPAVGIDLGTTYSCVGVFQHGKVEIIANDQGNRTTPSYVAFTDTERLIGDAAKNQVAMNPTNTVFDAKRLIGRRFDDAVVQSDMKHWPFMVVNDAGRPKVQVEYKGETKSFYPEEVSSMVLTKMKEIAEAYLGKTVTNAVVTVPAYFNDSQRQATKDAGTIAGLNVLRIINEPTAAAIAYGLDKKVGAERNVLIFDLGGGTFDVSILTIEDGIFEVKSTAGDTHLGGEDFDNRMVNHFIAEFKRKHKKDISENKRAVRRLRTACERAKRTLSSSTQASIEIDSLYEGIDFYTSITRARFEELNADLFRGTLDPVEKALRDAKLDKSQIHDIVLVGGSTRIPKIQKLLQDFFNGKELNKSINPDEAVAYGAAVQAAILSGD

Compound | 15N-1H NMR chemical shift differences, ATP versus ADP.Pi state (ADP.Pi state) | 15N-1H NMR chemical shift differences, ATP versus ADP.Pi state (ATP state)
Nc1ncnc2c1ncn2[C@@H]1O[C@H](COP(=O)(O)OP(=O)(O)O)[C@@H](O)[C@H]1O [ADP] | NMR spectra of the isolated NBD of Hsc70 between the ADP.Pi and ATP state | 
Nc1ncnc2c1ncn2[C@@H]1O[C@H](COP(=O)(O)OP(=O)(O)OP(=O)(O)O)[C@@H](O)[C@H]1O [ATP] |  | NMR spectra of the isolated NBD of Hsc70 between the ADP.Pi and ATP state
